Where two headings read alike, the source gives them in different places.
How the values were obtained:
Type in all cases: binding
[1] = molecular target: various enzymes (Homo sapiens, UniProt Q9Y6R4); settings: compound 1 uM
Protocol: (§1) Ambit profiling was conducted in accordance with the manufacturer's instructions.

[2] = molecular target: various enzymes (Homo sapiens, UniProt P29322); settings: compound 1 uM
Protocol: as §1

[3] = molecular target: various enzymes (Homo sapiens, UniProt Q8IYT8); settings: compound 1 uM
Protocol: as §1

[4] = molecular target: various enzymes (Homo sapiens, UniProt Q9UIK4); settings: compound 1 uM
Protocol: as §1

[5] = molecular target: various enzymes (Homo sapiens, UniProt Q9H422); settings: compound 1 uM
Protocol: as §1

[6] = molecular target: various enzymes (Homo sapiens, UniProt P36888, K663Q)
Protocol: as §1

[7] = molecular target: various enzymes (Homo sapiens, UniProt P23458); settings: compound 1 uM
Sequence of various enzymes (Homo sapiens, UniProt P23458) (P23458 whole entry): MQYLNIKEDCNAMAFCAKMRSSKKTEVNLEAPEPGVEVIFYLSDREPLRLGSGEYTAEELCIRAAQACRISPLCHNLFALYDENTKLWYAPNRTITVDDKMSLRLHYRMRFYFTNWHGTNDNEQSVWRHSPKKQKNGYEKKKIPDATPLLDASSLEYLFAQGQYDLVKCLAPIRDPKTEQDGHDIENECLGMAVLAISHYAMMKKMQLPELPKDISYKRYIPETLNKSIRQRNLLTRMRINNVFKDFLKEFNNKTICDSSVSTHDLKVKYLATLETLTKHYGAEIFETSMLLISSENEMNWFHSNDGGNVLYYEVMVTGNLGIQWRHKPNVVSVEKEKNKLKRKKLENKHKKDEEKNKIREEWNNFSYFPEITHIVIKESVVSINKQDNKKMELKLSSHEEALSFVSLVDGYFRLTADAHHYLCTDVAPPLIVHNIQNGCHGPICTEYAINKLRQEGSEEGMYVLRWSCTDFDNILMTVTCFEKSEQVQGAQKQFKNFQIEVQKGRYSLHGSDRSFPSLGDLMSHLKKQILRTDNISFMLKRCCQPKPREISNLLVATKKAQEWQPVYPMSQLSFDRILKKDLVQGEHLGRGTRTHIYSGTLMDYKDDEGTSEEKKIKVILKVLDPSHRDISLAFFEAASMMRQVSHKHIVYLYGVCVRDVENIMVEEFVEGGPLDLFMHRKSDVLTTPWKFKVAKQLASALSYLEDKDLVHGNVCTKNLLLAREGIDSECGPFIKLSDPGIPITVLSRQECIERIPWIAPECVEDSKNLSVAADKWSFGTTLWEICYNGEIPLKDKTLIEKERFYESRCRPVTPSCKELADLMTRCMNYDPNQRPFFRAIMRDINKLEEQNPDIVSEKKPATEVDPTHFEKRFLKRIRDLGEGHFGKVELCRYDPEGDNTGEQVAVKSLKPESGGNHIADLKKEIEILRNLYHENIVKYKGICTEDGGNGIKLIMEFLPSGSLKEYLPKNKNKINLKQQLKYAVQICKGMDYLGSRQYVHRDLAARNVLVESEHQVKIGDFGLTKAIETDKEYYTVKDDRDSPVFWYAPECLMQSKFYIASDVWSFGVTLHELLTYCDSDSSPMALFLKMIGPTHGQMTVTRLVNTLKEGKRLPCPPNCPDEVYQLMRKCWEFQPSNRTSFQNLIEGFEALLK
Protocol: as §1

[8] = molecular target: various enzymes (Homo sapiens, UniProt O75460); settings: compound 1 uM
Protocol: as §1

[9] = molecular target: various enzymes (Homo sapiens, UniProt Q07912); settings: compound 1 uM
Protocol: as §1

[10] = molecular target: various enzymes (Homo sapiens, UniProt P42336, E545K)
Sequence of various enzymes (Homo sapiens, UniProt P42336, E545K) (P42336 whole entry E545K): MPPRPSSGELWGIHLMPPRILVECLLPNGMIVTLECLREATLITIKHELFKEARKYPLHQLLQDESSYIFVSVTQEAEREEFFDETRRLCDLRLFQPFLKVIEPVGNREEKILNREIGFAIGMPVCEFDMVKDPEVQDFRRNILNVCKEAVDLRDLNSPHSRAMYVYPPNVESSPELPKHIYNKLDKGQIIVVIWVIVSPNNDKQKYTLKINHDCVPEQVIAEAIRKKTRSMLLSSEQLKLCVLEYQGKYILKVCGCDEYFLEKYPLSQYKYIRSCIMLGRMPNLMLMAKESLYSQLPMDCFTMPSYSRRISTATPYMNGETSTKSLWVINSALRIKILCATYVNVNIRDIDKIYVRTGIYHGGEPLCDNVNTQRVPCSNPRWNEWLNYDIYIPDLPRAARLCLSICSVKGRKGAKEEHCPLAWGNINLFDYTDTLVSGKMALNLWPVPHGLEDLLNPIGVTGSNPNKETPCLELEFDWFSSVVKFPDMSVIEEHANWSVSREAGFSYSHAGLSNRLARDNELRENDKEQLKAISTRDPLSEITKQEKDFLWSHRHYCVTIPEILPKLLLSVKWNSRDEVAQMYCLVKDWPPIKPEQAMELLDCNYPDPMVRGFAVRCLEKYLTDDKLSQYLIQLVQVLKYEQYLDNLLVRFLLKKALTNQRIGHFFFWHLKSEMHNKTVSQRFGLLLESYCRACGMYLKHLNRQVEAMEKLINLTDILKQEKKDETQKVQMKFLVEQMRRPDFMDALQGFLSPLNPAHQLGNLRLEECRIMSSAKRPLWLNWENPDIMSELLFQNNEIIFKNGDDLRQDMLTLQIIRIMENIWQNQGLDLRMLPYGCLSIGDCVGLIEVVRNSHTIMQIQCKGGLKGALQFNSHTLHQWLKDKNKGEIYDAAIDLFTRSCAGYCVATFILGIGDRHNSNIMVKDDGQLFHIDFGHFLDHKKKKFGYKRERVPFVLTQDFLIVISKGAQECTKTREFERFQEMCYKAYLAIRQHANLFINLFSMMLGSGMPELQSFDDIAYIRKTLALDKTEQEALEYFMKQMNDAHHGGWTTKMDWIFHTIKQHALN
Protocol: as §1

[11] = molecular target: various enzymes (Homo sapiens, UniProt Q02750); settings: compound 1 uM
Protocol: as §1

[12] = molecular target: various enzymes (Homo sapiens, UniProt O94806); settings: compound 1 uM
Protocol: as §1

[13] = molecular target: various enzymes (Homo sapiens, UniProt P24723); settings: compound 1 uM
Protocol: as §1

[14] = molecular target: various enzymes (Homo sapiens, UniProt Q9UL54); settings: compound 1 uM
Protocol: as §1

[15] = molecular target: various enzymes (Homo sapiens, UniProt P36888, D835Y)
Protocol: as §1

[16] = molecular target: various enzymes (Homo sapiens, UniProt O43353); settings: compound 1 uM
Protocol: as §1

[17] = molecular target: various enzymes (Homo sapiens, UniProt Q14289); settings: compound 1 uM
Protocol: as §1

[18] = molecular target: various enzymes (Homo sapiens, UniProt Q9H1R3); settings: compound 1 uM
Protocol: as §1

[19] = molecular target: various enzymes (Homo sapiens, UniProt P11362); settings: compound 1 uM
Protocol: as §1

[20] = molecular target: various enzymes (Homo sapiens, UniProt Q9UQB9); settings: compound 1 uM
Protocol: as §1

[21] = molecular target: various enzymes (Homo sapiens, UniProt Q8WTQ7); settings: compound 1 uM
Protocol: as §1

[22] = molecular target: various enzymes (Homo sapiens, UniProt O75914); settings: compound 1 uM
Protocol: as §1

[23] = molecular target: various enzymes (Homo sapiens, UniProt P80192); settings: compound 1 uM
Protocol: as §1

[24] = molecular target: various enzymes (Homo sapiens, UniProt P07947); settings: compound 1 uM
Protocol: as §1

[25] = molecular target: various enzymes (Homo sapiens, UniProt Q9P289); settings: compound 1 uM
Protocol: as §1

[26] = molecular target: various enzymes (Homo sapiens, UniProt P53671); settings: compound 1 uM
Protocol: as §1

[27] = molecular target: various enzymes (Homo sapiens, UniProt O95835); settings: compound 1 uM
Protocol: as §1

[28] = molecular target: various enzymes (Homo sapiens, UniProt Q00532); settings: compound 1 uM
Sequence of various enzymes (Homo sapiens, UniProt Q00532) (Q00532 whole entry): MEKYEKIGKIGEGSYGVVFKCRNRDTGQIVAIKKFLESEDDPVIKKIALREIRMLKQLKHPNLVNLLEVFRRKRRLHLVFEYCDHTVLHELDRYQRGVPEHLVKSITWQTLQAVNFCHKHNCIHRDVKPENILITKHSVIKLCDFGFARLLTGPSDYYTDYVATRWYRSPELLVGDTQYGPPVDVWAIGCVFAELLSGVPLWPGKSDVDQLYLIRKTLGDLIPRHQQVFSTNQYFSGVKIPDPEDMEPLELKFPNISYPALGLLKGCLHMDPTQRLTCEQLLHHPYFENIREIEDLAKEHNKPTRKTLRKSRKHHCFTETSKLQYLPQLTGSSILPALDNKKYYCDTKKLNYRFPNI
Protocol: as §1

[29] = molecular target: various enzymes (Homo sapiens, UniProt O75676); settings: compound 1 uM
Sequence of various enzymes (Homo sapiens, UniProt O75676) (O75676 whole entry): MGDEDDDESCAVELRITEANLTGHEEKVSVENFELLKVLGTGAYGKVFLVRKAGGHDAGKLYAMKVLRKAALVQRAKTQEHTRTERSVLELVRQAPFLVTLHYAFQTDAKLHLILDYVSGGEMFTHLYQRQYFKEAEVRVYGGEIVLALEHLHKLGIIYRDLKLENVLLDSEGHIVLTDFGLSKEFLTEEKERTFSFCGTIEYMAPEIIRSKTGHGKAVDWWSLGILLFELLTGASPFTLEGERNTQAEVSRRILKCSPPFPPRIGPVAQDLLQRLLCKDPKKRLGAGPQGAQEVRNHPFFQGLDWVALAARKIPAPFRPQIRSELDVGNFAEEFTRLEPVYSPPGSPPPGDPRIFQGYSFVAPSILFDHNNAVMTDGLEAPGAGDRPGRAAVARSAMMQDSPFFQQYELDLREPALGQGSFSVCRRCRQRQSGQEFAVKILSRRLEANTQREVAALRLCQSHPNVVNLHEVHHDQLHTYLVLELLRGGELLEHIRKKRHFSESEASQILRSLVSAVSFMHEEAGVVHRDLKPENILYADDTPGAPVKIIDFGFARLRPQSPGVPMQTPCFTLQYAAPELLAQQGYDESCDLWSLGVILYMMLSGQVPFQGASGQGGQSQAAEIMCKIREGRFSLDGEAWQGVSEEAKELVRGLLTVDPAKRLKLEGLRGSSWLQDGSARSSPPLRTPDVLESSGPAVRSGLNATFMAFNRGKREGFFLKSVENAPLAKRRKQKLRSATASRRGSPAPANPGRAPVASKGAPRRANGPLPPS
Protocol: as §1

[30] = molecular target: T1, various enzymes (Homo sapiens, UniProt O14733); settings: compound 1 uM
T1 sequence (O14733 1-419): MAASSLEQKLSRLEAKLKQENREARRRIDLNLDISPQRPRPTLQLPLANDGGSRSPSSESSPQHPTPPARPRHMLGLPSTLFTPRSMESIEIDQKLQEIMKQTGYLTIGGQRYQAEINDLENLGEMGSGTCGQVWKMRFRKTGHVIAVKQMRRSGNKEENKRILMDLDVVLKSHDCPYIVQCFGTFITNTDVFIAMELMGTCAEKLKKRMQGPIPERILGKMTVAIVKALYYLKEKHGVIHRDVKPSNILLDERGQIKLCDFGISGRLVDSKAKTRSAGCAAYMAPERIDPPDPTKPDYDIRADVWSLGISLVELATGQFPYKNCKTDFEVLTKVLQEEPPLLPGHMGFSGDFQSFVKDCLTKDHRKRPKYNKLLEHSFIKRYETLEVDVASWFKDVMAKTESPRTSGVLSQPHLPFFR
Protocol: as §1

[31] = molecular target: various enzymes (Homo sapiens, UniProt Q15375); settings: compound 1 uM
Protocol: as §1

[32] = molecular target: various enzymes (Homo sapiens, UniProt Q9NRH2); settings: compound 1 uM
Protocol: as §1

[33] = molecular target: various enzymes (Homo sapiens, UniProt P37173); settings: compound 1 uM
Protocol: as §1

[34] = molecular target: various enzymes (Homo sapiens, UniProt P17612); settings: compound 1 uM
Protocol: as §1

[35] = molecular target: various enzymes (Homo sapiens, UniProt P0C264); settings: compound 1 uM
Protocol: as §1

[36] = molecular target: various enzymes (Homo sapiens, UniProt Q15139); settings: compound 1 uM
Protocol: as §1

Sequence of various enzymes (Homo sapiens, UniProt Q9Y6R4) (Q9Y6R4 whole entry): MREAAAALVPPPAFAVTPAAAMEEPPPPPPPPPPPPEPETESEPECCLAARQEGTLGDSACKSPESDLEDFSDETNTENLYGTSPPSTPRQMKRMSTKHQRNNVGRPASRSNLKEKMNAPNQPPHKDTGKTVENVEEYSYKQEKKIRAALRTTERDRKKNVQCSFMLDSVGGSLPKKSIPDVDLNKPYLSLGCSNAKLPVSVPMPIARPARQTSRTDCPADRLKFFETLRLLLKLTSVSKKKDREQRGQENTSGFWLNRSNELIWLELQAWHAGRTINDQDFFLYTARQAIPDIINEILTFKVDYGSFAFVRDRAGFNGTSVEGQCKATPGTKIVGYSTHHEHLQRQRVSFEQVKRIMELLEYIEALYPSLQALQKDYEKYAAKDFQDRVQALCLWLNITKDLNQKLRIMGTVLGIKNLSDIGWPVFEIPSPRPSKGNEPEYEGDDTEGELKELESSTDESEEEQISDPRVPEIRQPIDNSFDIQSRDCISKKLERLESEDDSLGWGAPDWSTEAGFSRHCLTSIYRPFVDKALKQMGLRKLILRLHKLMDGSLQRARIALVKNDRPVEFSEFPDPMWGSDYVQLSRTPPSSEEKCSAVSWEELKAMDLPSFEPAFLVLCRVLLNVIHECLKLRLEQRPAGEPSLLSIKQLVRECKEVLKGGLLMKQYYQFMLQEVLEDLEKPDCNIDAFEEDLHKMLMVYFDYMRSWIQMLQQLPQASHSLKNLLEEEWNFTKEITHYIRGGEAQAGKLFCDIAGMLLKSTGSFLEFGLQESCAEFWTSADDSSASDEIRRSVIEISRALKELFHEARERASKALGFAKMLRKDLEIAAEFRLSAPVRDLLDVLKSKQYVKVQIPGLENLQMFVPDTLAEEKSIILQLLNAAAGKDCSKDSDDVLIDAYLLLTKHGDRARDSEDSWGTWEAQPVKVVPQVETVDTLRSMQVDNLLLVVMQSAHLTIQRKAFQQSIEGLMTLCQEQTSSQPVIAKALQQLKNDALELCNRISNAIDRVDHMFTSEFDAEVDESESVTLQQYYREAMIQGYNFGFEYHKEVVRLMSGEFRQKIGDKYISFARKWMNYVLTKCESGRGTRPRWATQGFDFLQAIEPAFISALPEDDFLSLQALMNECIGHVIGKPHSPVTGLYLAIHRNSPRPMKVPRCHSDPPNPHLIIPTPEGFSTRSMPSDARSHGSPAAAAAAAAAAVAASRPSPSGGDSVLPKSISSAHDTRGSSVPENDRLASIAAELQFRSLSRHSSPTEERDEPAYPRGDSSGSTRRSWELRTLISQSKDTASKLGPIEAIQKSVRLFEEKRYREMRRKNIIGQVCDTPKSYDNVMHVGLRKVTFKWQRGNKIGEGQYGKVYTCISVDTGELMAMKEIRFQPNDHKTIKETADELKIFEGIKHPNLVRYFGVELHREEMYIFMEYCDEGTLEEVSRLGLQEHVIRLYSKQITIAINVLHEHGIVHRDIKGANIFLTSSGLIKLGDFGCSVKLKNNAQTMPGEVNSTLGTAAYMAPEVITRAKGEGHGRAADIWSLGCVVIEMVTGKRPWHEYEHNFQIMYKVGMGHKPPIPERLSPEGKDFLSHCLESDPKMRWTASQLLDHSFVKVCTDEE

Row | SMILES | Ambit profiling: MAP3K4 [1] | Ambit profiling: EPHA8 [2] | Ambit profiling: ULK2 [3] | Ambit profiling: DAPK2 [4] | Ambit profiling: HIPK3 [5] | Ambit profiling: JAK1(JH1domain-catalytic) [7] | Ambit profiling: JAK1(JH2domain-pseudokinase) [7] | Ambit profiling: ERN1 [8] | Ambit profiling: TNK2 [9] | Ambit profiling: MEK1 [11] | Ambit profiling: PRKD3 [12] | Ambit profiling: PRKCH [13] | Ambit profiling: TAOK2 [14] | Ambit profiling: RIPK2 [16] | Ambit profiling: PYK2 [17] | Ambit profiling: MYLK2 [18] | Ambit profiling: FGFR1 [19] | Ambit profiling: AURKC [20] | Ambit profiling: GRK7 [21] | Ambit profiling: PAK3 [22] | further results
1 | CC(C)N1Cc2nn(C)cc2-c2cnc3[nH]cc(c3c2)-c2cn(nc2C(F)(F)F)CCCC1=O [Compound 45, (Z)-5-isopropyl-31-methyl-13-(trifluoromethyl)-11H,21H,31H-5-aza-2(3,5)-pyrrolo[2,3-b]pyridina-1(4,1),3(4,3)-dipyrazolacyclononaphan-6-one] | 94 | 8.7 | 56 | 100 | 15 | 36 | 65 | 90 | 11 | 17 | 11 | 100 | 28 | 12 | 30 | 29 | 2.5 | 20 | 28 | 12 | Ambit profiling: FLT3(K663Q) ([6]; compound 1 uM): 2; Ambit profiling: PIK3CA(E545K) ([10]; compound 1 uM): 51; Ambit profiling: FLT3(D835Y) ([15]; compound 1 uM): 1.3; Ambit profiling: MLK1 [23]: 46; Ambit profiling: YES [24]: 56; Ambit profiling: MST4 [25]: 24; Ambit profiling: LIMK2 [26]: 100; Ambit profiling: LATS1 [27]: 100; Ambit profiling: CDKL1 [28]: 39; Ambit profiling: RPS6KA4(Kin.Dom.1-N-terminal) [29]: 98; Ambit profiling: RPS6KA4(Kin.Dom.2-C-terminal) [29]: 100; Ambit profiling: MKK7 [30]: 76; Ambit profiling: EPHA7 [31]: 59; Ambit profiling: SNRK [32]: 100; Ambit profiling: TGFBR2 [33]: 91; Ambit profiling: PKAC-alpha [34]: 51; Ambit profiling: SgK110 [35]: 98; Ambit profiling: PRKD1 [36]: 36
2 | COc1c2c(nn1C)CN(C(C)C)C(=O)CCCn1cc(c(C(F)(F)F)n1)-c1c[nH]c3ncc-2cc13 [Compound 50, (Z)-5-isopropyl-35-methoxy-31-methyl-13-(trifluoromethyl)-11H,21H,31H-5-aza-2(3,5)-pyrrolo[2,3-b]pyridina-1(4,1),3(4,3)-dipyrazolacyclononaphan-6-one] | 60 | 26 | 96 | 67 | 26 | 100 | 81 | 71 | 1.9 | 12 | 15 | 85 | 69 | 11 | 19 | 39 | 5.8 | 39 | 9.7 | 24 | Ambit profiling: FLT3(K663Q) [6]: 0.9; Ambit profiling: PIK3CA(E545K) [10]: 74; Ambit profiling: FLT3(D835Y) [15]: 0.7; Ambit profiling: MLK1 [23]: 28; Ambit profiling: YES [24]: 21; Ambit profiling: MST4 [25]: 60; Ambit profiling: LIMK2 [26]: 64; Ambit profiling: LATS1 [27]: 72; Ambit profiling: CDKL1 [28]: 51; Ambit profiling: RPS6KA4(Kin.Dom.1-N-terminal) [29]: 62; Ambit profiling: RPS6KA4(Kin.Dom.2-C-terminal) [29]: 100; Ambit profiling: MKK7 [30]: 80; Ambit profiling: EPHA7 [31]: 50; Ambit profiling: SNRK [32]: 86; Ambit profiling: TGFBR2 [33]: 20; Ambit profiling: PKAC-alpha [34]: 72; Ambit profiling: SgK110 [35]: 99; Ambit profiling: PRKD1 [36]: 33

Source: patent US12157741B2, “Macrocyclic inhibitors of DYRK1A” (DANA-FARBER CANCER INSTITUTE, INC., priority 2018, dated 2024)
